We go through nine compounds from PubChem BioAssay AID1259407 (Chemical Carcinogenesis Research Information System (CCRIS), 2018).

The test system of this data set is CCRIS mutagenicity, Ames/micronucleus/aberration tests. The data set can be described thus: CCRIS mutagenicity studies.
Where [1] appears, read: Test System: AMES SALMONELLA TYPHIMURIUM, Strain/Indicator: TA98, Metabolic Activation: NONE, Method: STANDARD PLATE.
Setting [2] is: Test System: AMES SALMONELLA TYPHIMURIUM, Strain/Indicator: TA100, Metabolic Activation: NONE, Method: STANDARD PLATE.
[3] abbreviates: Test System: AMES SALMONELLA TYPHIMURIUM, Strain/Indicator: TA2637, Metabolic Activation: NONE, Method: STANDARD PLATE.
Setting [4] is: Test System: AMES SALMONELLA TYPHIMURIUM, Strain/Indicator: TA97, Metabolic Activation: NONE, Method: STANDARD PLATE.
The mark [5] stands for this setting: Test System: AMES SALMONELLA TYPHIMURIUM, Strain/Indicator: TA98, Metabolic Activation: RAT, LIVER, S-9, AROCLOR 1254, Method: STANDARD PLATE.
Setting [6] is: Test System: AMES SALMONELLA TYPHIMURIUM, Strain/Indicator: TA100, Metabolic Activation: RAT, LIVER, S-9, AROCLOR 1254, Method: STANDARD PLATE.
Where [7] appears, read: Test System: AMES SALMONELLA TYPHIMURIUM, Strain/Indicator: TA102, Metabolic Activation: NONE, Method: STANDARD PLATE.
Setting [8] is: Test System: AMES SALMONELLA TYPHIMURIUM, Strain/Indicator: TA1535, Metabolic Activation: NONE, Method: STANDARD PLATE.
Where [9] appears, read: Test System: AMES SALMONELLA TYPHIMURIUM, Strain/Indicator: TA100, Metabolic Activation: NONE, Method: PREINCUBATION

The source made the active and inactive calls. The rule behind the calls is not given here.

`Nc1ncnc2c1ncn2/C=C/C=O`: the mutagenic call (Test System: AMES SALMONELLA TYPHIMURIUM, Strain/Indicator: HISD3052, Metabolic Activation: NONE, Method: STANDARD PLATE) was “active; positive”.

Consider `C[C@H](CC1=C(C=O)CO[C@@H]1O)C1=CCC(C)(C)C1`, for which the mutagenic call is, setting by setting: under setting [1], “inactive; negative”; under setting [2], “inactive; negative”; under setting [3], “inactive; negative”.

Regarding `CCNc1nc(Cl)nc(NCC)n1`, the mutagenic call is, setting by setting: under setting [4], “inactive; negative”; (Test System: AMES SALMONELLA TYPHIMURIUM, Strain/Indicator: TA97, Metabolic Activation: RAT, LIVER, S-9, AROCLOR 1254, Method: STANDARD PLATE) “inactive; negative”; under setting [1], “inactive; negative”; under setting [5], “inactive; negative”; under setting [2], “inactive; negative”; under setting [6], “inactive; negative”. Also, the mutagenic call runs as follows: under setting [7], “inactive; negative”; (Test System: AMES SALMONELLA TYPHIMURIUM, Strain/Indicator: TA102, Metabolic Activation: RAT, LIVER, S-9, AROCLOR 1254, Method: STANDARD PLATE) “inactive; negative”.

In the case of `COc1cccc2c1C(=O)c1c(O)c3c(c(O)c1C2=O)C[C@@](O)(C(=O)CO)C[C@@H]3O[C@H]1C[C@H](N)[C@@H](O)[C@H](C)O1`, the mutagenic call was “inactive; negative” under setting [4]; “active; positive” under setting [1]; “inactive; negative” under setting [2]; “active; positive” under setting [7]; “inactive; negative” (Test System: AMES SALMONELLA TYPHIMURIUM, Strain/Indicator: TA104, Metabolic Activation: NONE, Method: STANDARD PLATE); “active; positive” under setting [3].

Regarding `C=CC(=O)OCCCCC`, the mutagenic call is “inactive; negative” under setting [1]; “inactive; negative” under setting [5]; “inactive; negative” (Test System: AMES SALMONELLA TYPHIMURIUM, Strain/Indicator: TA98, Metabolic Activation: RAT, LIVER, S-9, SODIUM PHENOBARBITAL, Method: STANDARD PLATE); “inactive; negative” under setting [2]; “inactive; negative” under setting [6]; “inactive; negative” (Test System: AMES SALMONELLA TYPHIMURIUM, Strain/Indicator: TA100, Metabolic Activation: RAT, LIVER, S-9, SODIUM PHENOBARBITAL, Method: STANDARD PLATE). Besides, the mutagenic call reads like this: under setting [8], “inactive; negative”; (Test System: AMES SALMONELLA TYPHIMURIUM, Strain/Indicator: TA1535, Metabolic Activation: RAT, LIVER, S-9, AROCLOR 1254, Method: STANDARD PLATE) “inactive; negative”; (Test System: AMES SALMONELLA TYPHIMURIUM, Strain/Indicator: TA1535, Metabolic Activation: RAT, LIVER, S-9, SODIUM PHENOBARBITAL, Method: STANDARD PLATE) “inactive; negative”; (Test System: AMES SALMONELLA TYPHIMURIUM, Strain/Indicator: TA1537, Metabolic Activation: NONE, Method: STANDARD PLATE) “inactive; negative”; (Test System: AMES SALMONELLA TYPHIMURIUM, Strain/Indicator: TA1537, Metabolic Activation: RAT, LIVER, S-9, AROCLOR 1254, Method: STANDARD PLATE) “inactive; negative”; (Test System: AMES SALMONELLA TYPHIMURIUM, Strain/Indicator: TA1537, Metabolic Activation: RAT, LIVER, S-9, SODIUM PHENOBARBITAL, Method: STANDARD PLATE) “inactive; negative”. The mutagenic call runs as follows: (Test System: AMES SALMONELLA TYPHIMURIUM, Strain/Indicator: TA1538, Metabolic Activation: NONE, Method: STANDARD PLATE) “inactive; negative”; (Test System: AMES SALMONELLA TYPHIMURIUM, Strain/Indicator: TA1538, Metabolic Activation: RAT, LIVER, S-9, AROCLOR 1254, Method: STANDARD PLATE) “inactive; negative”; (Test System: AMES SALMONELLA TYPHIMURIUM, Strain/Indicator: TA1538, Metabolic Activation: RAT, LIVER, S-9, SODIUM PHENOBARBITAL, Method: STANDARD PLATE) “inactive; negative”.

On to `CCCCCCC[CH2][Sn]1([CH2]CCCCCCC)[O]C(=O)C=CC(=O)[O]1`, for which the mutagenic call reads like this: (Test System: AMES SALMONELLA TYPHIMURIUM, Strain/Indicator: TA97, Metabolic Activation: HAMSTER, LIVER, S-9, AROCLOR 1254 (10 OR 30%), Method: PREINCUBATION) “inactive; negative”; (Test System: AMES SALMONELLA TYPHIMURIUM, Strain/Indicator: TA97, Metabolic Activation: NONE, Method: PREINCUBATION) “inactive; negative”; (Test System: AMES SALMONELLA TYPHIMURIUM, Strain/Indicator: TA97, Metabolic Activation: RAT, LIVER, S-9, AROCLOR 1254 (10 OR 30%), Method: PREINCUBATION) “inactive; negative”; (Test System: AMES SALMONELLA TYPHIMURIUM, Strain/Indicator: TA98, Metabolic Activation: HAMSTER, LIVER, S-9, AROCLOR 1254 (10 OR 30%), Method: PREINCUBATION) “inactive; negative”; (Test System: AMES SALMONELLA TYPHIMURIUM, Strain/Indicator: TA98, Metabolic Activation: NONE, Method: PREINCUBATION) “inactive; negative”; (Test System: AMES SALMONELLA TYPHIMURIUM, Strain/Indicator: TA98, Metabolic Activation: RAT, LIVER, S-9, AROCLOR 1254 (10 OR 30%), Method: PREINCUBATION) “inactive; negative”. In addition, the mutagenic call was “inactive; negative” (Test System: AMES SALMONELLA TYPHIMURIUM, Strain/Indicator: TA100, Metabolic Activation: HAMSTER, LIVER, S-9, AROCLOR 1254 (10 OR 30%), Method: PREINCUBATION); “inactive; negative” under setting [9]; “inactive; negative” (Test System: AMES SALMONELLA TYPHIMURIUM, Strain/Indicator: TA100, Metabolic Activation: RAT, LIVER, S-9, AROCLOR 1254 (10 OR 30%), Method: PREINCUBATION); “inactive; negative” (Test System: AMES SALMONELLA TYPHIMURIUM, Strain/Indicator: TA1535, Metabolic Activation: HAMSTER, LIVER, S-9, AROCLOR 1254 (10 OR 30%), Method: PREINCUBATION); “inactive; negative” (Test System: AMES SALMONELLA TYPHIMURIUM, Strain/Indicator: TA1535, Metabolic Activation: NONE, Method: PREINCUBATION); “inactive; negative” (Test System: AMES SALMONELLA TYPHIMURIUM, Strain/Indicator: TA1535, Metabolic Activation: RAT, LIVER, S-9, AROCLOR 1254 (10 OR 30%), Method: PREINCUBATION).

On to `CSc1ccc([N+](=O)[O-])cc1[N+](=O)[O-]`, for which the mutagenic call runs as follows: (Test System: AMES SALMONELLA TYPHIMURIUM, Strain/Indicator: TA100(NR), Metabolic Activation: NONE, Method: PREINCUBATION) “active; positive”; (Test System: AMES SALMONELLA TYPHIMURIUM, Strain/Indicator: TA100/GSH-, Metabolic Activation: NONE, Method: PREINCUBATION) “active; positive”; under setting [9], “active; positive”.

In the case of `COC(=O)c1ccc(CN(C)N=O)cc1`, the mutagenic call reads like this: (Test System: AMES SALMONELLA TYPHIMURIUM, Strain/Indicator: TA1535, Metabolic Activation: HAMSTER, LIVER, S-9, AROCLOR 1254, Method: STANDARD PLATE) “inactive; negative”; under setting [8], “inactive; negative”.

Consider `Brc1ccc(-c2ccc(Br)c(Br)c2)cc1Br`, for which the mutagenic call was “inactive; negative” (Test System: CHINESE HAMSTER V-79, Strain/Indicator: V-79 (HGPRT)/6-THIOGUANINE, Metabolic Activation: NONE) and “inactive; negative” (Test System: CHINESE HAMSTER V-79, Strain/Indicator: V-79 (HGPRT)/6-THIOGUANINE, Metabolic Activation: RAT, LIVER, S-9, AROCLOR 1254).
